Test system: BCL-2 protein
Assay: Western immunoblot analysis of BCL-2 protein
Format: cell-based, human
Details: cancer cells treated with 5-FU alone
Method: Western immunoblot analysis. Twenty-four hours prior to transfection 1×10^5 cells were plated in 6 well plates. Cells were either transfected using Oligofectamine (Thermo Fischer) or no transfection vehicle, with 50 nM control (scrambled) siRNA (Thermo Fischer), unmodified siBCL2 or an exemplary modified siBCL2 siRNA. Three days following transfection protein was collected in RIPA buffer with protease inhibitor (Sigma). Equal amounts of protein (15 μg), were separated on 12% sodium dodecyl sulfate-polyacrylamide gels as described in Laemmli U K. Nature. 1970; 227(5259) pp. 680-685, the entire contents of which is incorporated herein by reference. Proteins were probed with anti-BCL2 antibody (1:1000) (Thermo Fischer) and anti-GAPDH antibody (1:100000) (Santa Cruz). Horseradish peroxidase conjugated secondary antibodies against mouse or rabbit (1:5000, Santa Cruz Biotech Inc.) were added. Protein bands were then visualized with autoradiography film using SuperSignal West Pico Chemiluminescent Substrate (Thermo Fischer).

O=c1[nH]cc(F)c(=O)[nH]1 [5-FU, 5-fluoro-1H-pyrimidine-2,4-dione]
BCL-2 expression (Western blot): does not result in reduction of BCL-2 expression
